According to PMC6906431, “Selective small molecule PARG inhibitor causes replication fork stalling and cancer cell death” (Nature Communications, 2019):
Where “and” joins values, the source holds several entries; their conditions need not be identical. Equal entries are not always repeated.

How the values were obtained:
A172 glioblastoma cells = test: Sulforhodamine B (SRB) cytotoxicity assay
Protocol: (§1) Normalized % viabilities are plotted against log concentration. Error bars show the percent coefficient of variation. […] Mann-Whitney test was used to generate the p-value. The DNA spread assay is the representation of two independently repeated experiments. Source Data are provided as a Source Data file.
(§2) Cells were plated in 96-well plates, treated as designated in reduced 5% FBS and fixed with trichloroacetic acid after 72 h, as previously described by[43]. […] Colorimetric or fluorescence analysis was performed in a FlexStation 3, using SoftMax Pro 7.0, Molecular Devices. Normalized graphs were generated with Prism 8 software, non-linear 4-parameter data fitting was performed for IC50 calculation.

PC3 cells [1] = test: Sulforhodamine B (SRB) cytotoxicity assay; conditions: 72 h, without IR
PC3 cells [2] = test: Clonogenic survival assay; assay type: cell-based, human; conditions: PC3
Protocol: (§3) Fig. 6 Selective inhibition of PARG by xanthine derivative JA2131. a Clonogenic survival assays of PC3, MDA-MB-231, and MCF-7 cells treated with PARGi. Cells were treated with either DMSO or 10 µM JA2131 for 2 h, irradiated with 3 Gy (MDA-MB-231 and MCF-7), 7 Gy (PC3) IR and grown for ~2 weeks, then colonies were fixed with methanol and stained with crystal violet. The results of three independent experiments are shown. Error bars = the standard error of the mean (SEM). b dose-response of JA2131 in MDA-MB-231 cells with and without IR. Cells were treated with designated concentrations of JA2131 for 2 h and then either left untreated or exposed to 3 Gy IR and allowed to recover for 1 h before lysis. Total protein was immunoblotted with anti-PAR antibody (upper panel), stripped and reprobed with anti-PCNA as a loading control. c MDA-MB-231 cells with stable scrambled shRNA (WT) or stable PARG shRNA, knockdown (KD), were treated with 5 μM JA2131 for 2 h, lysed and then total lysates were immunoblotted for anti-PAR (upper panel) followed by anti-PARG (upper middle panel), anti-PARP1 (lower middle panel) and anti-actin (bottom panel) antibody. […] Stable cells with scramble shRNA (control) and shPARG (PARG-KD) cells were treated with an increasing concentration of JA2131 for growth inhibitory IC50 determination. The data was normalized against 100% survival at the lowest inhibitor concentration. Error bars show the percent coefficient of variation. Equivalent concentrations of DMSO were used as a negative control. e The cytotoxicity of JA2131 along with PDD, Veliparib and Doxorubicin against MRC-5 cells. Error bars show the percent coefficient of variation. f CETSA for in-cell JA2131 target engagement. Normalized anti-PARG western blot intensities of three independent experiments were fitted as above and the estimated aggregation temperature (Tagg) is shown in the tabulated insert. Source Data are provided as a Source Data file.
(§4) PC3, MDA-MB-231 cells were maintained in RPMI 1640, MCF-7 cells in Eagle’s Minimum Essential Medium (EMEM), MRC-5 cells in Eagle’s Minimum Essential Medium and Hela and U2OS cells in Dulbecco’s modified Eagle’s high glucose medium (DMEM) supplemented with 10% (vol/vol) fetal bovine serum (FBS) and 1% antibiotic/antimycotic (Lonza) in a humidified incubator with 10% CO2. All cell lines were purchased from ATCC and regularly checked for mycoplasma and cell authentication. SUM 149PT cells were cultured in F-12 Hams (Gibco) supplemented with 5% fetal bovine serum, insulin, and hydrocortisone. Colony formation assays were carried out in 6-well plates, 500 cells were used per well and following designated treatment, and colonies were grown for 2 weeks. Cells were fixed with methanol (100%), stained with crystal violet and analyzed using a GelCount instrument (Oxford Optronix Ltd). Crystal Violet C6158 was purchased from Sigma. PARG knockdown cells were generated by infecting MDA-MB-231 cells with shPARG lentiviral particles (sc-106355-V, Santa Cruz Biotechnology), which contain a pool of three shRNA plasmids. After 24 h infection, 3 µg/ml puromycin (Invitrogen) was added and antibiotic-resistant cells were further expanded and used for experimentation. Sequence-1; hairpin sequence: […], sense: […]tt, Antisense: […]tt. Sequence-2; hairpin sequence, […]-[…], sense: […]tt, antisense: […]tt. Sequence-3; hairpin sequence: […]-[…], sense: […]tt, antisense: […]-GGUUUCCtt. Control cells were generated using the same process except that scramble lentiviral particles with scrambled sequences were used (sc-108080).
(§5) Supplementary Fig. 8: Clonogenic survival of cells in the presence of PARGi and PARPi (a)
(§6) Clonogenic survival of PC3 cells in response to indicated compounds. ( b) Clonogenic survival of
(§7) MDA-MB-231 cells in response to i ndicated compounds. (c) Clonogenic survival of MCF -7 cells
(§8) in response to indicated compounds. […]

MCF-7 cells = test: Clonogenic survival assay; assay type: cell-based, human
Protocol: as §3, §4, §5, §6, §7, §8

MDA-MB-231 cells = test: Clonogenic survival assay; assay type: cell-based, human; conditions: MDA-MB-231
Protocol: as §3, §4, §5, §6, §7, §8

[3] = Sulforhodamine B (SRB) cytotoxicity assay; conditions: human, PC3 cells, Viability; for viability at 72 h, 1.95 µM: log [concentration] μM 0.290702; for viability at 72 h, 3.91 µM: log [concentration] μM 0.591732; for viability at 72 h, 7.81 µM: log [concentration] μM 0.892818; for viability at 72 h, 15.63 µM: log [concentration] μM 1.19382; for viability at 72 h, 31.25 µM: log [concentration] μM 1.49485; for viability at 72 h, 62.5 µM: log [concentration] μM 1.79588; for viability at 72 h, 125 µM: log [concentration] μM 2.09691; for viability at 72 h, 250 µM: log [concentration] μM 2.39794; for viability at 72 h, 500 µM: log [concentration] μM 2.69897; for viability at 72 h, 1000 µM: log [concentration] μM 3; for viability at 72 h, 2000 µM: log [concentration] μM 3.30103
[4] = Sulforhodamine B (SRB) cytotoxicity assay; assay type: cell-based, human; conditions: human, MRC-5 cells
Protocol: as §3

[5] = Sulforhodamine B (SRB) cytotoxicity assay; conditions: human, A172 glioblastoma cells
Protocol: as §1, §2

Work on `[NH2][Pt]1([NH2])[O]CC(=O)[O]1` [Nedaplatin] yielded an IC50 (A172 glioblastoma cells; 72 h) of 67.6 ± 46.5 µM, a Viability (A172 glioblastoma cells; 72 h, log [concentration] μM 0.291) of 99.176% and a Viability (A172 glioblastoma cells; 72 h, log [concentration] μM 0.592) of 95.055%. For the same compound, the Viability (A172 glioblastoma cells; 72 h, log [concentration] μM 0.893) was 88.736%, the Viability (A172 glioblastoma cells; 72 h, log [concentration] μM 1.495) was 69.505% and the Viability (A172 glioblastoma cells; 72 h, log [concentration] μM 1.796) was 60.165%. The Viability (A172 glioblastoma cells; 72 h, log [concentration] μM 2.097) was 45.055%, the Viability (A172 glioblastoma cells; 72 h, log [concentration] μM 2.398) was 21.154% and the Viability (A172 glioblastoma cells; 72 h, log [concentration] μM 2.699) was 18.681%. For the same compound, the Viability (A172 glioblastoma cells; 72 h, log [concentration] μM 3) was 18.681%, the Viability (A172 glioblastoma cells; 72 h, log [concentration] μM -0.01) was 107.967% and the Viability (A172 glioblastoma cells; 72 h, log [concentration] μM -0.312) was 100%. For the same compound, the IC50 (PC3 cells [1]) was 4.98 ± 0.2 µM, the Viability (PC3 cells [1]; log [concentration] μM 0.291) was 99.072% and the Viability (PC3 cells [1]; log [concentration] μM 0.592) was 89.849%. It also gave a Viability (PC3 cells [1]; log [concentration] μM 0.893) of 9.664%, a Viability (PC3 cells [1]; log [concentration] μM 1.194) of 8.121% and a Viability (PC3 cells [1]; log [concentration] μM 1.495) of 6.671%. It also gave a Viability (PC3 cells [1]; log [concentration] μM 1.796) of 7.309% and a Viability (PC3 cells [1]; log [concentration] μM -0.01) of 100%.
In the case of `Cn1c(=S)c2[nH]c(SCCN3CCOCC3)nc2n(C)c1=O` [JA-2131], the “colony count (clonogenic survival, raw replicate data, Supplementary Figure 8)” value (from here on “colony count”) (PC3 cells [2]; Experiment-1, replicates 1-6) is reported as 191 and 210 and 213 and 170 and 222 and 223, the “colony count” value (PC3 cells [2]; Experiment-2, replicates 1-6) is reported as 174 and 164 and 144 and 181 and 152 and 125 and the “colony count” value (PC3 cells [2]; Experiment-3, replicates 1-6) is reported as 164 and 128 and 108 and 141 and 148 and 123. For the same compound, the “colony count” value (MCF-7 cells; Experiment-1, replicates 1-6) was 184 and 217 and 183 and 124 and 178 and 153, the “colony count” value (MCF-7 cells; Experiment-2, replicates 1-6) was 141 and 190 (2×) and 218 and 209 and 269 and the “colony count” value (MCF-7 cells; Experiment-3, replicates 1-6) was 154 and 188 and 126 and 153 and 169 and 142.
In the case of `O=C(c1cc(Cc2n[nH]c(=O)c3ccccc23)ccc1F)N1CCN(C(=O)C2CC2)CC1` [Olaparib, reference compound], the “colony count” value (PC3 cells [2]; Experiment-1, replicates 1-6) is reported as 5 and 10 and 21 and 13 and 39 and 16, the “colony count” value (PC3 cells [2]; Experiment-2, replicates 1-6) is reported as 6 (3×) and 1 and 0 and 11 and the “colony count” value (PC3 cells [2]; Experiment-3, replicates 1-6) is reported as 0 (2×) and 3 (3×) and 1. For the same compound, the “colony count” value (MDA-MB-231 cells; Experiment-1, replicates 1-6) was 0 and 1 (2×) and 2 (2×) and 3, the “colony count” value (MDA-MB-231 cells; Experiment-2, replicates 1-6) was 1 (3×) and 2 (2×) and 3 and the “colony count” value (MDA-MB-231 cells; Experiment-3, replicates 1-6) was 2 and 1 (3×) and 4 and 3. For the same compound, the “colony count” value (MCF-7 cells; Experiment-1, replicates 1-6) was 14 and 16 and 15 and 5 and 13 and 26, the “colony count” value (MCF-7 cells; Experiment-2, replicates 1-6) was 25 and 5 (2×) and 4 and 1 and 2 and the “colony count” value (MCF-7 cells; Experiment-3, replicates 1-6) was 18 (2×) and 15 and 17 and 16 and 5. The viability at 72 h, 1.95 µM ([3]; +IR 7.0 Gy) was 100%, the viability at 72 h, 3.91 µM ([3]; +IR 7.0 Gy) was 101% and the viability at 72 h, 7.81 µM ([3]; +IR 7.0 Gy) was 101%. The viability at 72 h, 15.63 µM ([3]; +IR 7.0 Gy) was 99.1%, the viability at 72 h, 31.25 µM ([3]; +IR 7.0 Gy) was 79.9% and the viability at 72 h, 62.5 µM ([3]; +IR 7.0 Gy) was 52.4%. The viability at 72 h, 125 µM ([3]; +IR 7.0 Gy) was 32.6%, the viability at 72 h, 250 µM ([3]; +IR 7.0 Gy) was 16.5% and the viability at 72 h, 500 µM ([3]; +IR 7.0 Gy) was 11.1%. For the same compound, the viability at 72 h, 1000 µM ([3]; +IR 7.0 Gy) was 11.4%, the viability at 72 h, 2000 µM ([3]; +IR 7.0 Gy) was 10.8% and the viability at 72 h, 1.95 µM ([3]; -IR) was 100%. The viability at 72 h, 3.91 µM ([3]; -IR) was 102%, the viability at 72 h, 7.81 µM ([3]; -IR) was 94.4% and the viability at 72 h, 15.63 µM ([3]; -IR) was 77.7%. It also gave a viability at 72 h, 31.25 µM ([3]; -IR) of 53.3%, a viability at 72 h, 62.5 µM ([3]; -IR) of 34.7% and a viability at 72 h, 125 µM ([3]; -IR) of 20.2%. For the same compound, the viability at 72 h, 250 µM ([3]; -IR) was 9.43%, the viability at 72 h, 500 µM ([3]; -IR) was 5.75% and the viability at 72 h, 1000 µM ([3]; -IR) was 6.34%. For the same compound, the viability at 72 h, 2000 µM ([3]; -IR) was 6.26%.
`C[C@]1(c2nc3c(C(N)=O)cccc3[nH]2)CCCN1` [Veliparib] showed a viability at 72 h, 1.95 µM ([4]; log [concentration] μM 0.29) of 90.5%, a viability at 72 h, 3.89 µM ([4]; log [concentration] μM 0.59) of 94.5% and a viability at 72 h, 7.76 µM ([4]; log [concentration] μM 0.89) of 86%. It also gave a viability at 72 h, 15.5 µM ([4]; log [concentration] μM 1.19) of 85.3%, a viability at 72 h, 30.9 µM ([4]; log [concentration] μM 1.49) of 89% and a viability at 72 h, 63.1 µM ([4]; log [concentration] μM 1.8) of 77.6%. It also gave a viability at 72 h, 126 µM ([4]; log [concentration] μM 2.1) of 70.3%, a viability at 72 h, 251 µM ([4]; log [concentration] μM 2.4) of 58.2% and a viability at 72 h, 501 µM ([4]; log [concentration] μM 2.7) of 34.2%. It also gave a viability at 72 h, 0.977 µM ([4]; log [concentration] μM -0.01) of 89.2%, a viability at 72 h, 0.49 µM ([4]; log [concentration] μM -0.31) of 90.8% and a viability at 72 h, 0.245 µM ([4]; log [concentration] μM -0.61) of 100%. It also gave an IC50 (A172 glioblastoma cells; Homo sapiens, A 172, 72 h) of 153 ± 44.2 µM, a viability at 72 h, 0.244 µM [5] of 100% and a viability at 72 h, 0.488 µM [5] of 104%. The viability at 72 h, 0.977 µM [5] was 102%, the viability at 72 h, 1.95 µM [5] was 106% and the viability at 72 h, 3.91 µM [5] was 101%. For the same compound, the viability at 72 h, 7.82 µM [5] was 104%, the viability at 72 h, 15.6 µM [5] was 98.6% and the viability at 72 h, 31.3 µM [5] was 94.1%. The viability at 72 h, 62.5 µM [5] was 88.5%, the viability at 72 h, 125 µM [5] was 69.1% and the viability at 72 h, 250 µM [5] was 27.2%. It also gave a viability at 72 h, 500 µM [5] of 15.4%.
